Measurements published in US9101618B2, “Method for treating and/or preventing neurodegenerative disease by adiponectin receptor agonist” (TOKYO METROPOLITAN INSTITUTE OF MEDICAL SCIENCE, priority 2011, dated 2015).
Where a SMILES comes first, the peptide text is derived from it. The star is where a group is joined. Cbz = O=C(OCc1ccccc1)*

Assays:
B103 neuroblastoma cells [1] = test: Induction of adiponectin mRNA expression by proteasome inhibition (RT-PCR); format: cell-based, rat; conditions: 10 μM, six hours, regardless of the presence of α-synuclein expression
Procedure: RT-PCR was performed in accordance with a method of Fujita et al. (Fujita et al., Nat. Commun. 1:110 (2010)). Total RNA was extracted from the frozen brain samples of the α (alpha)S tg mice and the non tg mice by ISOGEN (NIPPON GENE CO., LTD.), followed by performing DNase (DNase 1, Invitrogen, Life Technologies Japan Ltd.) treatment at 37° C. for 30 min. Here, cDNA was synthesized from the total RNA of 2.5 μg, using Superscript III First-Strand Synthesis system (Invitrogen, Life Technologies Japan Ltd.).
A reaction condition of PCR was as follows. That is, PCR was at first performed at 94° C. for 5 min, followed by repeating 35 times a cycle of: 95° C. for 30 sec; 55° C. for 30 sec; and 72° C. for 60 sec. Subsequently, PCR was further performed at 72° C. for 10 min before reaching a stationary state and being left standing at 4° C. PCR products were electrophoresed in 1.2% agarose gel. With regard to an mRNA amount of each gene, concentrations of ethidium bromide-stained bands of the PCR products were quantitated by densitometer (ATTO). mRNA amounts of adiponectin were standardized by mRNA amounts of cyclophilin A.
MG132 (Calbiochem, Merck & Co., Inc.) was used as a proteasome inhibitor. […] Six hours later, the aforementioned cells were collected, and expression of adiponectin mRNA was measured by RT-PCR.

GSK-3β (beta) = test: Addition of p38 MAPK inhibitor and AMPK inhibitor: phospho-GSK-3β western blotting; format: cell-based, rat; conditions: 5 μM inhibitor 10 min, then adiponectin 1 μg/mL 30 min
Procedure: The aforementioned B103 neuroblastoma cells (α (alpha)S) were inoculated on the 6-well plate and cultured to a state of about 80-90% confluence. After washing with PBS, the aforementioned cells were further cultured for 10 min in an inhibition test medium prepared by adding either 5 μM p38 MAPK inhibitor (SB203580, Promega) or 5 μM AMPK inhibitor (Compound C, Calbiochem) to a serum-free medium. As a control, DMSO was added to a serum-free medium instead of the aforementioned inhibitors. Later, either recombinant human adiponectin (1 μg/mL, trimer, PROSPEC) or PBS was added so as to culture the cells for 30 min. The cells collected were then lysed with the aforementioned cell lysis solution. Supernatants were collected after performing centrifugation at 100,000×g for 30 min, and then subjected to western blotting. Here, western blotting was performed in accordance with the procedures described in example 1.
When performing western blotting to evaluate signal transduction pathways, the anti-phospho-GSK-3β (beta) (Ser9) antibody (D85E12, Cell Signaling Technology), the anti-GSK-3β (beta) antibody (BD Biosciences) and the anti-β (beta)-actin mouse monoclonal antibody (C-15, Sigma-Aldrich Japan Inc.) were used as primary antibodies after being appropriately diluted. Further, the HRP labeled anti-mouse IgG antibody (DAKO) was used as a secondary antibody after being appropriately diluted.

[2] = tested on: B103 neuroblastoma cells (α (alpha)S); test: Effect of adiponectin siRNA on aggregate state of α-synuclein (western blotting of soluble fractions); format: cell-based, rat; conditions: B103 neuroblastoma cells (αS), siRNA transduced, cultivated 72 hours, western blot
Procedure: (§1) Rat adiponectin sense strand RNA: 5′-CAAUGACUCUACAUUUACAtt-3′ (SEQ. No. 15), antisense strand RNA: 5′-UGUAAAUGUAGAGUCAUUGtt-3′ (SEQ. No. 16), sense strand RNA of random sequence in control experiment: 5′-UCUUAAUCGCGUAUAAGGCtt-3′ (SEQ. No. 17) and antisense strand RNA: 5′-GCCUUAUACGCGAUUAAGAtt-3′ (SEQ. No. 18) were prepared utilizing Takara siRNA Design Support System (http://www.takara-bio.co.jp/rnai/) (Takara Bio Inc.). The B103 neuroblastoma cells (α (alpha)S) and the B103 neuroblastoma cells (vector) for the control experiment were cultured using a commercially available 6-well plate, and were transfected using Lipofectamine 2000 (Invitrogen, Life Technologies Japan Ltd.) in a state of 30-50% confluence. After performing transfection for six hours, a medium was replaced with a DMEM containing 10% FBS. After performing cultivation for 24 hours, the medium was then replaced with a serum-free DMEM medium so as to avoid effects of adiponectin. After performing cultivation for another three days, transfected B103 neuroblastoma cells were collected so as to be subjected to a detection of an aggregate state of α (alpha)-synuclein and a measurement of proteasomal activity. […]
Extraction of each soluble fraction and quantification of protein in each soluble fraction by western blotting were performed in accordance with procedures similar to those of example 1 through example 3.

[3] = tested on: B103 neuroblastoma cells (α (alpha)S); test: Thioflavin T staining of adiponectin siRNA-transduced cells; format: cell-based, rat; conditions: α-synuclein expressing neuroblastoma cells with adiponectin expression suppressed
Procedure: as §1, with “activity. Further, transfection to B103 neuroblastoma cells for thioflavin T staining were carried out on a polylysine-coated cover glass.” for “activity.”

B103 neuroblastoma cells [4] = test: Measurement of proteasomal activity in siRNA-transduced cells; format: cell-based, rat; conditions: compared to cells transduced with siRNA of random sequence
Procedure: as §1, with “FBS.” for “FBS. After performing cultivation for 24 hours, the medium was then replaced with a serum-free DMEM medium so as to avoid effects of adiponectin. After performing cultivation for another three days, transfected B103 neuroblastoma cells were collected so as to be subjected to a detection of an aggregate state of α (alpha)-synuclein and a measurement of proteasomal activity.”
siRNA-transduced B103 neuroblastoma cells were collected with HEPES buffer (50 mM HEPES (pH 7.4), 10 mM EDTA, 10 mM NaCl). […] Protein concentrations were measured, and […] thereof was dissolved in HEPES buffer containing 40 μM of benzyloxycarbonyl-Leu-Leu-Glu-amidomethylcoumarin fluorescent proteasome substrate (Chemicon, Japan Millipore Corporation). Proteasomal activity was calculated as follows. That is, a disintegrated amount of substrate was measured by Berthold Mithras LB940 microplate reader (Berthold Japan co. ltd.), according to time for one hour and at 37° C. […]

α (alpha)S tg mouse [5] = test: Continuous nasal administration of globular adiponectin: immunohistochemical staining of brain; format: in vivo
Procedure: (§2) An α (alpha)S tg mouse and a non tg mouse were distinguished in accordance with the method described in example 2. Globular adiponectin (gAPN) was nasally administered to the α (alpha)S tg mouse and the non tg mouse on days 0, 3, 6, 9, 12, 15, 18 and 21. Further, as a control, PBS was nasally administered to the α (alpha)S tg mouse and the non tg mouse on days 0, 3, 6, 9, 12, 15, 18 and 21. When performing nasal administration, 10 μL of the transmucosal absorption enhancer (PBS containing 5 mg/mL poly-L-arginine hydrochloride (molecular mass>70,000 (Sigma-Aldrich Japan Inc.)) was nasally administered to the mouse. Half an hour later, either 10 μL of globular adiponectin (PBS containing 1 mg/mL gAPN (Prospec)) or 10 μL of PBS was nasally administered to the mouse. On day 22 of nasal administration, the aforementioned mouse was euthanized in accordance with the method described in example 2, followed by collecting brain samples thereof. The hemispheres used for pathological analysis were immersion-fixed using 4% paraformaldehyde, followed by being embedded in paraffin. The other hemispheres used for western blotting were frozen by liquid nitrogen and stored at −80° C.
Immunohistochemical staining was performed in a standard manner known to those skilled in the art. Briefly, thin sliced sections were prepared at a thickness of 4 μm, using the brain samples embedded in paraffin. After being deparaffinized, the thin sliced sections were placed in a 10 mM sodium citrate buffer solution (pH 6.0) to be subjected to an antigen activation treatment (95° C., 10 min) using microwave (MW). After completing the antigen activation treatment, the thin sliced sections were further treated for 15 min with methanol containing 3% hydrogen peroxide. After washing, the thin sliced sections were then subjected to blocking for 30 min, using 10% goat normal serum (Vector Laboratories, Inc.)/TBS (25 mM Tris-HCl (pH 7.5), 0.15 M NaCl). Later, the thin sliced sections were incubated overnight at 4° C. with a primary antibody (anti-α (alpha)-synuclein antibody or anti-GFAP antibody) diluted with 0.1% bovine serum albumin (BSA)/TBS. After washing, the thin sliced sections were further incubated for 20 min at room temperature with a secondary antibody (biotin labeled anti-mouse IgG antibody (Vector Laboratories, Inc.)) diluted with 0.1% BSA/TBS. When performing staining, there were used ABC kit (Vector Laboratories, Inc.) and 3,3′-diaminobenzidine tetrahydrochloride (DAB). After completing staining, the thin sliced sections were observed using a microscope.

α (alpha)S tg mouse [6] = test: Continuous nasal administration of globular adiponectin: GFAP in surfactant insoluble fraction; format: in vivo; conditions: versus gAPN non-administration group
Procedure: as §2, with “C. […]” for “C.”

α (alpha)S tg mouse [7] = test: Continuous nasal administration of globular adiponectin: α-synuclein aggregation in various fractions; format: in vivo; conditions: cerebral cortex, gAPN-administered group
Procedure: as §2
The TBS soluble fraction, the SDS soluble fraction and the formic acid soluble fraction were prepared from the cerebral cortex of the brain sample in accordance with the method described in example 1. […]

[8] = nasal, days 0-21 every 3 days, brain on day 22

**Q.** Which “induction of adiponectin expression (mRNA)” value (B103 neuroblastoma cells [1]) does the source give for `CC(C)C[C@@H](C=O)NC(=O)[C@H](CC(C)C)NC(=O)[C@H](CC(C)C)NC(=O)OCc1ccccc1` [MG132] (Cbz-Leu-Leu-Leu-aldehyde) here?
**A.** increased

**Q.** How did the “phosphorylated GSK-3β in surfactant soluble fraction” value (GSK-3β (beta)) turn out when `C[S+]([O-])c1ccc(-c2nc(-c3ccncc3)c(-c3ccc(F)cc3)[nH]2)cc1` (stereo not drawn) [SB203580] was run?
**A.** not detected

**Q.** Which “phosphorylated GSK-3β in surfactant soluble fraction” value (GSK-3β (beta)) does the source give for `c1cc(-c2cnn3cc(-c4ccc(OCCN5CCCCC5)cc4)cnc23)ccn1` [Compound C] here?
**A.** detected

**Q.** With “APN siRNA: Rat adiponectin siRNA, sense strand SEQ. No. 15, antisense strand SEQ. No. 16 (sense CAAUGACUCUACAUUUACATT; antisense UGUAAAUGUAGAGUCAUUGTT; RNA strands with tt 3' overhangs, overhang chemistry not given here, further chemistry not given here)” as the molecule, how does the “α-synuclein in the formic acid soluble fraction” value [2] read?
**A.** also detected

**Q.** What about the “thioflavin T staining (aggregation of protein)” value [3] of the same molecule?
**A.** thioflavin T-positive

**Q.** What about the proteasomal activity (B103 neuroblastoma cells [4]) of the same molecule?
**A.** low

B1: gAPN: Globular adiponectin (Prospec); adiponectin isoform whose N-terminal collagen-like domain has been cut by protease (protein, listed as Homo sapiens)
chain: PGEGAYVYRSAFSVGLETYVTIPNMPIRFTKIFYNQQNHYDGSTGKFHCNIPGLYYFAYHITVYMKDVKVSLFKKDKAMLFTYDQYQENNVDQASGSVLLHLEVGDQVWLQVYGEGERNGLYADNDNDSTFTGFLLYHDTN
modifications: human adiponectin globular domain
notes: Globular adiponectin (Prospec); adiponectin isoform whose N-terminal collagen-like domain has been cut by protease
**Q.** With B1 as the molecule, how does the adverse effects (α (alpha)S tg mouse [5]; continuous nasal administration) read?
**A.** not observed particularly

**Q.** And the “growth of astrocyte in cerebral cortex” value (α (alpha)S tg mouse [5]; [8])?
**A.** hardly detected

**Q.** What about the “α-synuclein aggregates in olfactory bulb” value (α (alpha)S tg mouse [5]; [8]) of the same molecule?
**A.** hardly detected

**Q.** What about the “α-synuclein aggregates in thalamus” value (α (alpha)S tg mouse [5]; [8]) of the same molecule?
**A.** hardly detected

**Q.** And the “GFAP in surfactant insoluble fraction” value (α (alpha)S tg mouse [6])?
**A.** observed less

**Q.** What about the “amount of α-synuclein aggregates in SDS soluble fraction” value (α (alpha)S tg mouse [7]) of the same molecule?
**A.** decreased significantly
